Results as given in paper PMC6940745 (International Journal of Molecular Sciences, 2019).
Where a SMILES comes first, the peptide text is derived from it. [ ]: non-standard residue; d: D form. The star is where a group is joined. Bz = O=C(c1ccccc1)*; NPr2 = CCCN(CCC)*

How the values were obtained:
MC4R = molecular target: T1, MC4R (Homo sapiens, UniProt P32245); experiment: MC4R activation, cAMP HTRF assay in CHO-K1 cells; format: cell-based; conditions: eight concentrations, 0.01 to 100,000 nM
T1 construct: host or cells: CHO-K1
Procedure: MCR-activation assays were performed by means of a cAMP HTRF (homogeneous time resolved fluorescence) assay for Gs-coupled receptors (cAMP Gs dynamic kit, Cisbio bioassays, 62AM4PEC). CHO-K1 cells expressing human recombinant MC1 receptor (EuroscreenFast, Gosselies, Belgium) (or MC2R, MC3R, MC4R, MC5R) were grown prior to the test in media without antibiotic. They were detached by gentle flushing with PBS-EDTA (5 mM EDTA), recovered by centrifugation, and resuspended in assay buffer (5 mM KCl, 1.25 mM MgSO4, 124 mM NaCl, 25 mM HEPES, 13.3 mM Glucose, 1.25 mM KH2PO4, 1.45 mM CaCl2, 0.5 g/L BSA, supplemented with 1 mM IBMX). Dose response curves were performed in parallel with the reference compounds. For agonist test (96-well), 12 µL of cells were mixed with 12 µL of the test compound diluted at increasing concentrations in assay buffer, and then incubated for 30 min at room temperature. After addition of the lysis buffer and 1 h incubation, fluorescence signal was measured, according to the manufacturer’s specifications, with the homogeneous time resolved fluorescence (HTRF) kit.

OP2R = molecular target: T2, OP2R (Homo sapiens, UniProt P41145); experiment: OP2R (kappa opioid) activation, GTPγS scintillation proximity assay; format: biochemical; conditions: eight concentrations, 0.01 to 100,000 nM
T2 construct: host or cells: CHO-K1 (membrane preparations)
Procedure: Melatonin (MT1R and MT2R) and opioid receptor (OP1R, OP2R, and OP3R, corresponding to human delta, kappa, and mu opioid receptors) activation assays were performed by means of GTPγS scintillation proximity assays. For agonist testing, membrane preparations from CHO-K1 cells expressing each receptor (EuroscreenFast, Gosselies, Belgium) were mixed with guanosine diphosphate (GDP) (v/v). In parallel, GTPγ[^35S] (PerkinElmer, NEG030X, 0.1 nM final assay concentration) was mixed with PVT-WGA beads (Perkin Elmer, RPNQ001, 0.5 mg/well final assay density) (v/v) just before starting the reaction. The following reagents were then successively added in the wells of an Optiplate (Perkin Elmer): A total of 50 µL of test or reference ligand diluted in assay buffer, 10 µL of assay buffer (20 mM HEPES pH 7.4; 100–200 mM NaCl, 10 µg/mL saponin, MgCl2 at optimized concentration for the specific receptor, 0%–0.1% BSA), 20 µL of the membranes: GDP mix, and 20 µL of the GTPγ[^35S]: Beads mix. The plates were covered with a top seal, mixed on an orbital shaker for 2 min, and then incubated for 1 h at room temperature. Then the plates were centrifuged for 10 min at 2000 rpm, incubated at room temperature for 1 h, and counted for 1 min/well with a PerkinElmer TopCount™ reader.

human 5-HT2AR = human 5-HT2AR (Homo sapiens, UniProt P28223); experiment: 5-HT2AR activation, Aequorin assay; format: cell-based; conditions: eight concentrations, 0.01 to 100,000 nM
Procedure: Melanin-concentrating hormone receptor (MCHR), endothelin-1 receptor (ETBR), and serotonin-receptor (5-HT2AR) assays were performed by means of Aequorin assays. Recombinant cells co-expressing human MCH1R, MCH2R, ETBR, or 5-HT2AR and mitochondrial apoaequorin (MCH1R, MCH2R and 5-HT2AR cells also co-express recombinant Gα16 protein) (EuroscreenFast, Gosselies, Belgium), grown 18 h prior to the test in media without antibiotics, were detached by gentle flushing with PBS-EDTA (5 mM EDTA), recovered by centrifugation, and resuspended in assay buffer (DMEM/HAM’s F12 with HEPES + 0.1% BSA protease free). Cells were incubated under agitation at room temperature for at least 4 h with Coelenterazine h (Promega, X300X, 0.5 µM final concentration). Dose response curves with the reference compounds were performed before testing the compounds. For agonist testing, 50 µL of cell suspension was injected on 50 µL of test compound or reference agonist diluted in assay buffer and plated in a 96-well plate. The resulting emission of light was recorded using the Hamamatsu Functional Drug Screening System 6000 (FDSS 6000). […] Agonist activity of test compound was expressed as a percentage of the activity of the reference agonist at its EC100 concentration.

[1] = tested on: human abdominal skin ex vivo; experiment: Stimulation of pigmentation in human abdominal skin ex vivo (Fontana-Masson melanin quantification); format: cell-based; conditions: topical
Procedure: Following declaration of Helsinki principles (DoH-Oct2013, World Medical Association, Ferney-Voltaire, France), human skin samples were obtained from elective plastic surgery after informed consent was obtained. For the two experiments shown in Figure 2, Figure 3 and Figure 4, we had one person with an individual topology angle (ITA°) of 18, and one person with an ITA° of 39 [69]. The skin samples were cut in pieces of 8 × 3 mm and cultured up to day 6. Skin samples were cultured in an air–liquid interface in a perforated ring of stainless steel in contact with culture medium (modified Williams’ E medium). The culture medium was renewed every three days (i.e., day 0–3). Compounds were added daily in DMSO at 4 µL volume. At day 6, the skin samples were fixed in formalin, embedded in paraplast, and cut at the microtome for histochemical staining and consequent image analysis. Six skin biopsies were used for each single treatment.
Two skin biopsies for each treatment were weighed and, in each case, reduced in the dermal portion, in order to have approximately the same weight for all of them. Samples were then washed and processed with methylthiazolyldiphenyl-tetrazolium bromide (MTT). The color intensity, that is directly proportional to skin vitality, was measured with a plate reader at a wavelength of 570 nm. For melanin quantification, skin sections were stained with a modified Fontana-Masson stain that dyes melanin argentaffin granules in black/dark grey. The amount of melanin present in each slide was evaluated by estimating grey intensity and distribution within the sections using ImageJ application (NIH-USA). Two slides of each skin sample were processed by image acquisition and related analysis (i.e., 12 images for each treatment).
Figure 2 Stimulation of pigmentation by MC1R-agonist peptides ex vivo. Melanin was quantified on skin sections using ImageJ software (NIH, USA). Human abdominal skin was topically treated with peptides at various concentrations for six days. * p < 0.05 vs vehicle by unpaired Student’s t-test. […]

Sequence of human 5-HT2AR (P28223 whole entry): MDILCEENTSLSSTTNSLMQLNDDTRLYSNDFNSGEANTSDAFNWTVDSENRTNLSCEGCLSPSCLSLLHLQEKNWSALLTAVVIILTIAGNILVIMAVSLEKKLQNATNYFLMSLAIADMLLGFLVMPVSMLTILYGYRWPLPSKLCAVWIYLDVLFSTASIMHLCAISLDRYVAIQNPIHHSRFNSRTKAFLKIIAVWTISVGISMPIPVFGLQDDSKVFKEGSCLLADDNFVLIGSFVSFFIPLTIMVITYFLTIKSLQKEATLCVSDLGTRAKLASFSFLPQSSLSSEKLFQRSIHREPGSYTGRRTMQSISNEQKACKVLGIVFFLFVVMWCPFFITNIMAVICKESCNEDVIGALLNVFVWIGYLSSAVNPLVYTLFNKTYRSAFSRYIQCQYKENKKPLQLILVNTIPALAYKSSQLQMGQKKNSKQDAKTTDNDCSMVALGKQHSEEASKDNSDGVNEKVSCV
T1 sequence (P32245 whole entry): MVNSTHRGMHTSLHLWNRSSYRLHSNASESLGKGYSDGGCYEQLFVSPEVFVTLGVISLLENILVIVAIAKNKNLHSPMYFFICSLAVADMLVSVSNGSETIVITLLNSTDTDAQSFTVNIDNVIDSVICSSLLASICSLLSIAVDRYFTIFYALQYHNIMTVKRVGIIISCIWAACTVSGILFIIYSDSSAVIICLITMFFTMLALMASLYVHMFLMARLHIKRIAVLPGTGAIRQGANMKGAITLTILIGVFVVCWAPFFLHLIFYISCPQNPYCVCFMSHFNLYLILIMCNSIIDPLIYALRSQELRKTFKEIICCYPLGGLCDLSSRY
T2 sequence (P41145 whole entry): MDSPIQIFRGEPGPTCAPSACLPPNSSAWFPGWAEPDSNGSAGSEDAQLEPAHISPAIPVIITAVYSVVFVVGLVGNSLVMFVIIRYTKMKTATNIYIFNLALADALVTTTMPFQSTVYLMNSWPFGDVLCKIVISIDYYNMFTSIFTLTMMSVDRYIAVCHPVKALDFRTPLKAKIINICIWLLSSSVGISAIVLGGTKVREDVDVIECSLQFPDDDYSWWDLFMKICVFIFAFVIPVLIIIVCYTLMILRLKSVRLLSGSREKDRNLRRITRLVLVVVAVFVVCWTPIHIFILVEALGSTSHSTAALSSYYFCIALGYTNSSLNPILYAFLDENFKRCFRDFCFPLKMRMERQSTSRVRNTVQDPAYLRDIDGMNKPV

CCCN(CCC)C(=O)[C@@H](Cc1c[nH]c2ccccc12)NC(=O)[C@H](CCCNC(=N)N)NC(=O)[C@@H](Cc1ccccc1)NC(=O)[C@H](Cc1c[nH]cn1)NC(=O)CNC(=O)c1ccccc1 [Peptide 4] (Bz-GH[dF]R[dW]-NPr2)
EC50 (MC4R): 0.136 µM
EC50 (OP2R): > 100 µM
EC50 (human 5-HT2AR): > 100 µM
Stimulation of pigmentation compared to vehicle-treated control tissue ([1]; 200 µM peptide, six days): up to 21%
Concentration of optimal activity for pigmentation enhancement ([1]; human abdominal skin ex vivo): 30 µM
